According to patent US9993457B2, “Method of improving visual processing, visual acuity, or both by administering compositions comprising RRR-alpha-tocopherol and carotenoid to infants” (ABBOTT LABORATORIES, priority 2014, dated 2018):
Where two headings read alike, the source gives them in different places.

How the values were obtained:
[1] = in vivo
Description: In Example 1, the brain tissues of infants were sampled to measure the concentration of total alpha-tocopherol and RRR-alpha-tocopherol.
Subjects were infants (n=25) who died during the first year of life from either SIDS or other conditions. Brain tissues (occipital cortex, OC {n=17}; frontal cortex, FC {n−17}; and hippocampus, HPC {n=19}) from the NICHD Brain and Tissue Bank were processed using standard lipid extraction procedures and analyzed using chiral reverse phase HPLC. Data are presented as concentrations (μg/g tissue) of total alpha-tocopherol or RRR-alpha-tocopherol in the brain tissue.
The mean concentration in each region is denoted by a horizontal bar. […] In addition, total alpha-tocopherol was analyzed by age (in days) in the frontal cortex (graph B), hippocampus (graph C), and occipital cortex (graph D). […] RRR-alpha-tocopherol concentrations were also measured in the frontal cortex (graph E), hippocampus (graph F), and occipital cortex (graph G) of human infant brain tissues and reported as a function of age.

[2] = cited from earlier work

SMILES	correlation between age and mean concentration [1]	stereoisomer predominance compared to all non-RRR-alpha-tocopherol stereoisomers [1]	biological activity relative to all-rac-alpha-tocopherol ([2]; accepted nutritional guidelines)	biological activity relative to all-rac-alpha-tocopherol ([2]; recent studies)	change of total alpha-tocopherol concentration with age [1]
Cc1c(C)c2c(c(C)c1O)CC[C@@](C)(CCC[C@H](C)CCC[C@H](C)CCCC(C)C)O2 [RRR-alpha-tocopherol]	strong correlation	predominant stereoisomer	1.36 times	about 2 times	
Cc1c(C)c2c(c(C)c1O)CC[C@@](C)(CCC[C@H](C)CCC[C@H](C)CCCC(C)C)O2 [alpha-tocopherol]					increased with age
